Source: patent US20260224496A1, “HIGHLY POROUS GAS-BLOWN HYDROGELS FOR DIRECT CELL ENCAPSULATION WITH HIGH CELL VIABILITY” (Syracuse University, priority 2023, published 2026)

Experiments:
adipose-derived MSCs = assay: Solution cytocompatibility of blowing components, resazurin assay
Description: (§1) Using IC50 values as a concentration ceiling, the cytocompatibility of citric acid, NaHCO3, and Irgacure 2959 was measured with adipose-derived MSCs at concentrations of 0.25, 1, and 0.2% (w/v) in DMEM, respectively. MSCs were seeded in 24 well plates at 2,500 cells per well. […] After incubation, cells were treated with a resazurin assay for 2 hours for cytocompatibility measurements or with Live/Dead assay stains and imaging for morphology analysis.

3T3 mouse fibroblasts = assay: IC50 values of foaming components, resazurin assay (Alamar Blue); type: cell-based; conditions: 20-minute exposure
Description: Cells were cultured in DMEM with 10% fetal bovine serum (FBS) and 1% penicillin-streptomycin (pen-strep) at 37° C. with 5% CO2. Cells were trypsinized and seeded at a density of 5,000 cells per well in a 96-well plate. […] After a 20-minute exposure, solutions were removed, and cell viability was measured compared to an untreated control using a resazurin assay (Alamar Blue) read by a plate reader. Cell viability was calculated as: […]
The blank was a well with media only and no cells.

in vitro = assay: in vitro
Description: as §1

O=C([O-])O.[Na+] [NaHCO3, sodium bicarbonate]
MSC viability after 24-hour recovery (adipose-derived MSCs; citric acid 0.25%, Irgacure 2959 0.2%, NaHCO3 1% (w/v) in DMEM, 24-hour recovery): 95% | MSC viability after 1 hour of exposure (adipose-derived MSCs; citric acid 0.25%, Irgacure 2959 0.2%, NaHCO3 1% (w/v) in DMEM, 1 hour exposure): 98%

CC(C)(O)C(=O)c1ccc(OCCO)cc1 [Irgacure 2959]
MSC viability after 24-hour recovery (adipose-derived MSCs): 99% | MSC viability after 1 hour of exposure (adipose-derived MSCs): 99%

O=C(O)CC(O)(CC(=O)O)C(=O)O [Citric acid, citric acid]
IC50 (3T3 mouse fibroblasts): 0.23 wt % | viability at 1 h, 0.25 % (w/v) (in vitro): 51% | viability at 24 h, 0.25 % (w/v) (in vitro): 21%
